target: HPK1 (Homo sapiens (Human), UniProt Q92918); test: HPK1 biochemical enzyme assay (microfluidic mobility shift assay); conditions: 1.5 nM HPK1, ATP 1 mM final, 30 min preincubation, 60 min at RT, Caliper EZ Reader; read-out: HPK1 1000UMATP caliper IC50
Outline: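 Ten-point compound titrations (top 3 μM final) preincubated 30 min with HPK1 and substrate, then reaction started with 1 mM ATP and 1 μM substrate, 5 mM MgCl2. After 60 min at RT, reaction terminated and product measured by microfluidic mobility shift.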

HPK1, sequence (Q92918 whole entry): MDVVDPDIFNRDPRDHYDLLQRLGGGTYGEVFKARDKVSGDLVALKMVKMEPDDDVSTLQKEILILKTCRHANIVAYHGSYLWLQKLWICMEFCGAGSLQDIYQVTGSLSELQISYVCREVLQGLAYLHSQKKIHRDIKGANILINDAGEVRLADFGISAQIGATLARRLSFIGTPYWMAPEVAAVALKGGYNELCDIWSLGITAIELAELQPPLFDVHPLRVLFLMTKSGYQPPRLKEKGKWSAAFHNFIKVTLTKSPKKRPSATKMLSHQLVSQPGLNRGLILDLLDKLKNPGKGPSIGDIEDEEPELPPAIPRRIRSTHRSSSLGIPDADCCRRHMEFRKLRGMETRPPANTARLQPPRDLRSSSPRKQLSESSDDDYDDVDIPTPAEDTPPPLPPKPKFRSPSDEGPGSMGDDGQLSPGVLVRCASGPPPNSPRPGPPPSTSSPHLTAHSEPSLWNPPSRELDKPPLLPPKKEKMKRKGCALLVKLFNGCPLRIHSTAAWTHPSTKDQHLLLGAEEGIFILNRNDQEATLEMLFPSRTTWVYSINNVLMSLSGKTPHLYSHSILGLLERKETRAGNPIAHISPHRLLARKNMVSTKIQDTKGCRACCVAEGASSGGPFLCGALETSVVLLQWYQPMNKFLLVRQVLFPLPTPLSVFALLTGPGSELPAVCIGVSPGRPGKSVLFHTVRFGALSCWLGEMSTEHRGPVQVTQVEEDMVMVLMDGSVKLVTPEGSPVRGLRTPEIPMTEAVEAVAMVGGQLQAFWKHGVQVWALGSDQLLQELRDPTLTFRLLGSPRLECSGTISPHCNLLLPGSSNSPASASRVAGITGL

Row | Structure (SMILES) | IC50 [nM]
1 | O=C1NCc2c(-c3cnc4cc(F)ccn34)ccc(Nc3ccc([C@H]4CCOC4)c(CN4CCC4)n3)c21 [I-755, (R)-7-((6-(azetidin-1-ylmethyl)-5-(tetrahydrofuran-3-yl)pyridin-2-yl)amino)-4-(7-fluoroimidazo [1,2-a]pyridin-3-yl)isoindolin-1-one] | < 100
2 | Cc1ccn2c(-c3ccc(Nc4ccc(C5(O)CCOCC5)cn4)c4c3CNC4=O)cnc2c1F [I-587, 4-(8-fluoro-7-methylimidazo [1,2-a]pyridin-3-yl)-7-((5-(4-hydroxytetra-hydro-2H-pyran-4-yl)pyridin-2-yl)amino)isoin-dolin-1-one] | < 100
3 | O=C1NCc2c(-c3cnc4cnccn34)ccc(Nc3ccc(N4[C@@H]5CC[C@H]4C[C@@H](O)C5)cn3)c21 [I-304, 7-((5-((1R,3r,5S)-3-hydroxy-8-azabicyclo [3,2.1]octan-8-yl)pyridin-2-yl)amino)-4-(imidazo[1,2-a]pyrazin-3-yl)isoindolin-1-one] | < 100
4 | O=C1NCc2c(-c3cnc4cc(F)ccn34)ccc(Nc3ccc(N4CCC[C@H](N5CCOCC5)C4)cn3)c21 [I-501, (S)-4-(7-fluoroimidazo [1,2-a]pyridin-3-yl)-7-((5-(3-morpholinopip-eridin-1-yl)pyridin-2-yl)amino)isoin-dolin-1-one] | < 100
5 | COC[C@@H]1CN(c2ccc(Nc3ccc(-c4cnc5cc(F)ccn45)c4c3C(=O)NC4)nc2)CCO1 [I-442, (S)-4-(7-fluoroimidazo [1,2-a]pyridin-3-yl)-7-((5-(2-(methoxymeth-yl)morpholino)pyridin-2-yl)amino)isoin-dolin-1-one] | < 100
6 | CC(C)(O)[C@@H]1CN(c2ccc(Nc3ccc(-c4cnc5cccnn45)c4c3C(=O)NC4)nc2)CCO1 [I-474, 7-[[5-[(2S)-2-(1-hydroxy-1-methyl-ethyl)morpholin-4-yl]-2-pyridyl]amino]4-imidazo[1,2-b]pyridazin-3-yl-isoindolin-1-one] | < 100
7 | C[C@@H]1CC[C@](C)(O)CN1c1ccc(Nc2ccc(-c3cnn4c3CCCC4)c3c2C(=O)NC3)nc1 (stereo in doubt) [I-597, 7-((5-((2S,5S)-5-hydroxy-2,5-dimethyl-piperidin-1-yl)pyridin-2-yl)amino)-4-(4,5,6,7-tetrahydropyra-zolo[1,5-a]pyridin-3-yl)isoindolin-1-one] | < 100
8 | C[C@H](c1ccc(Nc2ccc(-c3cnc4cc(F)ccn34)c3c2C(=O)NC3)nc1)N1CCC(O)CC1 [I-527, (R)-4-(7-fluoroimidazo [1,2-a]pyridin-3-yl)-7-((5-(1-(4-hydroxypiperidin-1-yl)ethyl)pyridin-2-yl)amino)isoin-dolin-1-one] | < 100
9 | COC1CCN(c2ccc(Nc3cnc(-c4cnc5c(F)cccn45)c4c3C(=O)NC4)nc2)CC1 [I-455, 4-(8-fluoroimidazo [1,2-a]pyridin-3-yl)-7-[[5-(4-methoxy-1-piperidyl)-2-pyridyl]amino]-2,3-dihydropyrrolo [3,4-c]pyridin-1-one] | 100 to 1000
10 | CN(C)Cc1nc(Nc2ccc(-c3cnc4cc(F)ccn34)c3c2C(=O)NC3)ccc1[C@H]1CCCOC1 [I-550] | < 100
11 | Cn1ccc2c(-c3ncc(Nc4ccc(N5CCC[C@](O)(CN6CCOCC6)C5)cn4)c4c3CNC4=O)ccnc21 (single isomer, unassigned) [I-674] | < 100
12 | CN(C)Cc1nc(Nc2ccc(-c3cnc4cc(F)ccn34)c3c2C(=O)NC3)ccc1C1(C#N)CCOCC1 [I-824, 4-(2-((dimethylamino)methyl)-6-((7-(7-fluoroimidazo [1,2-a]pyridin-3-yl)-3-oxoisoindolin-4-yl)amino)pyri-din-3-yl)tetrahydro-2H-pyran-4-carbonitrilc] | < 100
13 | O=C1NCc2c(-c3cnc4cnccn34)ccc(Nc3ccc(N4CCC[C@@H](O)C4)cn3)c21 [I-171] | < 100
14 | CN(C)CC1CN(c2ccc(Nc3ccc(-c4cnc5cc(F)ccn45)c4c3C(=O)NC4)nc2)CCO1 (stereo not drawn) [I-383, 7-((5-(2-((dimethylamino)-methyl)mor pholino)pyridin-2-yl)amino)-4-(7-fluoroimidazo [1,2-a]pyridin-3-yl)isoindolin-1-one] | < 100
15 | CN(C)C1(C2CN(c3ccc(Nc4ccc(-c5cnc6cc(F)ccn56)c5c4C(=O)NC5)nc3)CCO2)CC1 (stereo in doubt) [I-687, (S)-7-((5-(2-(1-(dimethylami-no)cyclopropyl)morpholino)py-ridin-2-yl)amino)-4-(7-fluoroimidazo [1,2-a]pyridin-3-yl)isoindolin-1-one] | < 100
16 | Cn1ccc2c(-c3ccc(Nc4ccc(N5CCC(O)CC5)cn4)c4c3CNC4=O)ncnc21 [I-144, 7-[[5-(4-hydroxy-1-piperidyl)-2-pyridyl]amino]-4-(7-methylpyrrolo [2,3-d]pyrimidin-4-yl)isoindolin-1-one] | < 100
17 | O=C1NCc2c(-c3cnc4cc(F)ccn34)ccc(Nc3ccc([C@@H]4CCOC4)c(CNCC(F)(F)F)n3)c21 [I-751, (S)-4-(7-fluoroimidazo [1,2-a]pyridin-3-yl)-7-((5-(tetrahydrofuran-3-yl)-6-(((2,2,2-trifluoroethyl)amino)methyl)pyridin-2-yl)amino)isoin-dolin-1-one] | < 100
18 | CN1CCN(c2ccc(Nc3cnc(-c4cnc5ccccn45)c4c3C(=O)NC4)nc2)CC1 [I-56, 4-(Imidazo[1,2-a]pyridin-3-yl)-7-((5-(4-methylpiperazin-1-yl)pyridin-2-yl)amino)-2,3-dihydro-1H-pyrrolo[3,4-c]pyridin-1-one] | < 100
19 | CN(C[C@H]1CN(c2ccc(Nc3ccc(-c4cnc5cc(F)ccn45)c4c3C(=O)NC4)nc2)CCO1)C1CC1 [I-499, 7-[[5-[(2S)-2-[[cyclopropyl (methyl)amino]methyl]morpholin-4-yl]-2-pyridyl]amino] 4-(7-fluoroimidazo [1,2-a]pyridin-3-yl)isoindolin-1-one] | < 100
20 | CN1CCN(c2ccc(Nc3ccc(-c4cn(C)c5ncccc45)c4c3C(=O)NC4)nc2)CC1 [I-22, 7-[[5-(4-methylpiperazin-1-yl)-2-pyridyl]amino]-4-(1-methylpyrrolo [2,3-b]pyridin-3-yl)-isoindolin-1-one] | 100 to 1000
21 | CN1CCC[C@H](c2cccc(Nc3cnc(-c4ccnc5c4ccn5C)c4c3C(=O)NC4)n2)C1 [I-419, (S)-4-(1-methyl-1H-pyrrolo[2,3-b]pyridin-4-yl)-7-((6-(1-methylpiperidin-3-yl)pyridin-2-yl)amino)-2.3-dihydro-1H-pyrrolo[3,4-c]pyridin-1-one] | > 1000
22 | O=C1NCc2c(-c3cnc4cc(F)ccn34)ncc(Nc3ccc(N4CCCC(O)(CN5CCOCC5)C4)cn3)c21 (stereo not drawn) [I-654, 4-(7-fluoroimidazo [1,2-a]pyridin-3-yl)-7-((5-(3-hydroxy-3-(morpholinomethyl)piperidin-1-yl)pyridin-2-yl)amino)-2.3-dihydro-1H-pyrrolo[3,4-c]pyridin-1-one] | < 100
23 | O=C1NCc2c(-c3cnc4cc(F)ccn34)ccc(Nc3cccc(O[C@@H]4CCC[C@@H]4O)n3)c21 (stereo in doubt) [I-353, 4-(7-fluoroimidazo [1,2-a]pyridin-3-yl)-7-((6-(((1S,2R)-2-hydroxycyclo-pentyl)oxy)py-ridin-2-yl)amino) isoin-dolin-1-one] | 100 to 1000
24 | CC(C)(O)[C@@H]1CCCN(c2ccc(Nc3ccc(-c4cnc5cc(F)ccn45)c4c3C(=O)NC4)nc2)C1 [I-202] | < 100
